Source: patent publication US8735406B2, “8-oxodihydropurine derivative” (Dainippon Sumitomo Pharma Co., Ltd., priority 2009, dated 2014)

Molecular target: T1, FAAH (Rattus norvegicus, UniProt P97612)
T1 construct: Preparation of Rat Brain Membranes Preparations (FAAH Enzyme Solution); from tissue; host or cells: rat cerebrum (brain membrane preparation)
T1 sequence (P97612 1-579): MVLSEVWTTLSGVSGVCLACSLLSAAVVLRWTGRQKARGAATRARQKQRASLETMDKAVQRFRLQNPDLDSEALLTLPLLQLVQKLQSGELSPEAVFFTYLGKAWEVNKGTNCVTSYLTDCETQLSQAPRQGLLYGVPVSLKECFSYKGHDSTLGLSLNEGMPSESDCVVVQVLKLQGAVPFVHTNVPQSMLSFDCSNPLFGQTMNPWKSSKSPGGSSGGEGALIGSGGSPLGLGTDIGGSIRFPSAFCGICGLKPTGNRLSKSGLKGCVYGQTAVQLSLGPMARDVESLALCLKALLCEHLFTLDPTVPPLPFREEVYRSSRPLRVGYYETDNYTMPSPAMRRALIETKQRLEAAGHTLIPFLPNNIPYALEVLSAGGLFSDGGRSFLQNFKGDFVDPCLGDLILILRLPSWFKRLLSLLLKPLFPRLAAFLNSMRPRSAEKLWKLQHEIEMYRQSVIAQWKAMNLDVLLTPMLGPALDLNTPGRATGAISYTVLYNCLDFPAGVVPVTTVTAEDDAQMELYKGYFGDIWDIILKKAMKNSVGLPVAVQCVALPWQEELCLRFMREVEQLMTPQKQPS
Assay: Determination of FAAH inhibitory activity in rat (rat brain membrane preparations, [3H]-anandamide hydrolysis)
Assay type: biochemical
Settings: rat brain membrane preparations; for inhibition at 0.1 µM: 100 nM test substance, read-out: FAAH Inhibition, Inhibition Rate at 100 nM; for IC50: test substance 0.1 nM to 1 μM, read-out: FAAH Inhibition IC50
Procedure, shortened: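 Compounds tested from 0.1 nM to 1 μM to derive IC50 against FAAH hydrolysis in rat brain membrane preparations (100 μg/mL). A 10-min 37 °C preincubation was followed by 10 min with [3H]-anandamide (2 nM) mixed with 2 μM unlabelled anandamide. Radioactive ethanolamine was extracted into the water/methanol layer and counted.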

| inhibition at 0.1 µM [%] | IC50 [nM] | SMILES |
| --- | --- | --- |
| 100 | 5 | Cn1c(=O)n(C(=O)N2CCCC2)c2cnc(Cc3ccccc3)nc21 [Example 253, 2-benzyl-9-methyl-7-(pyrrolidin-1-ylcarbonyl)-7,9-dihydro-8H-purine-8-one] |
| 98 | 33 | Cn1c(=O)n(C(=O)N2CCCC2)c2cnc(Cc3ccccc3F)nc21 [Example 254, 2-(2-Fluorobenzyl)-9-methyl-7-(pyrrolidin-1-ylcarbonyl)-7,9-dihydro-8H-purine-8-one] |
| 100 | 14 | Cn1c(=O)n(C(=O)N2CCCC2)c2cnc(Cc3cccc(F)c3)nc21 [Example 255, 2-(3-Fluorobenzyl)-9-methyl-7-(pyrrolidin-1-ylcarbonyl)-7,9-dihydro-8H-purine-8-one] |
| 99 | 7 | Cn1c(=O)n(C(=O)N2CCCC2)c2cnc(Cc3ccc(F)cc3)nc21 [Example 256, 2-(4-Fluorobenzyl)-9-methyl-7-(pyrrolidin-1-ylcarbonyl)-7,9-dihydro-8H-purine-8-one] |
| 98 | 40 | Cc1cccc(Cc2ncc3c(n2)n(C)c(=O)n3C(=O)N2CCCC2)c1 [Example 258, 9-Methyl-2-(3-methylbenzyl)-7-(pyrrolidin-1-ylcarbonyl)-7,9-dihydro-8H-purine-8-one] |
| 100 | 16 | COc1cccc(Cc2ncc3c(n2)n(C)c(=O)n3C(=O)N2CCCC2)c1 [Example 261, 2-(3-Methoxybenzyl)-9-methyl-7-(pyrrolidin-1-ylcarbonyl)-7,9-dihydro-8H-purine-8-one] |
| 99 | 24 | COc1ccc(Cc2ncc3c(n2)n(C)c(=O)n3C(=O)N2CCCC2)cc1 [Example 262, 2-(4-Methoxybenzyl)-9-methyl-7-(pyrrolidin-1-ylcarbonyl)-7,9-dihydro-8H-purine-8-one] |
| 92 | 41 | Cn1c(=O)n(C(=O)N2CCCC2)c2cnc(Cc3ccc(F)cc3F)nc21 [Example 266, 2-(2,4-Difluorobenzyl)-9-methyl-7-(pyrrolidin-1-ylcarbonyl)-7,9-dihydro-8H-purine-8-one] |
| 99 | 23 | Cn1c(=O)n(C(=O)N2CCCC2)c2cnc(Cc3cc(F)ccc3F)nc21 [Example 267, 2-(2,5-Difluorobenzyl)-9-methyl-7-(pyrrolidin-1-ylcarbonyl)-7,9-dihydro-8H-purine-8-one] |
| 96 | 32 | Cn1c(=O)n(C(=O)N2CCCC2)c2cnc(Cc3cc(F)cc(F)c3)nc21 [Example 270, 2-(3,5-Difluorobenzyl)-9-methyl-7-(pyrrolidin-1-ylcarbonyl)-7,9-dihydro-8H-purine-8-one] |
| 86 | 59 | Cn1c(=O)n(C(=O)N2CCCC2)c2nc(Cc3cccc(F)c3)ncc21 [Example 286, 2-(3-Fluorobenzyl)-7-methyl-9-(pyrrolidin-1-ylcarbonyl)-7,9-dihydro-8H-purine-8-one] |
| 96 | 29 | COc1ccc(Cc2ncc3c(n2)n(C(=O)N2CCCC2)c(=O)n3C)cc1 [Example 287, 2-(4-Methoxybenzyl)-7-methyl-9-(pyrrolidin-1-ylcarbonyl)-7,9-dihydro-8H-purine-8-one] |
| 96 | 15 | Cc1ccc(Cc2ncc3c(n2)n(C(=O)N2CCCC2)c(=O)n3C)cc1 [Example 289, 7-Methyl-2-(4-methylbenzyl)-9-(pyrrolidin-1-ylcarbonyl)-7,9-dihydro-8H-purine-8-one] |

More lines, now with the values behind:

| SMILES | inhibition at 0.1 µM [%] | IC50 [nM] |
| --- | --- | --- |
| Cc1ccccc1Cc1ncc2c(n1)n(C)c(=O)n2C(=O)N1CCCC1 [Example 257, 9-Methyl-2-(2-methylbenzyl)-7-(pyrrolidin-1-ylcarbonyl)-7,9-dihydro-8H-purine-8-one] | 88 | 51 |
| Cn1c(=O)n(C(=O)N2CCCC2)c2cnc(Cc3ccc(-c4ccccc4)cc3)nc21 [Example 265, 2-(Biphenyl-4-ylmethyl)-9-methyl-7-(pyrrolidin-1-ylcarbonyl)-7,9-dihydro-8H-purine-8-one] | 98 | 9 |
| Cn1c(=O)n(C(=O)N2CCCC2)c2cnc(Cc3c(F)cccc3F)nc21 [Example 268, 2-(2,6-Difluorobenzyl)-9-methyl-7-(pyrrolidin-1-ylcarbonyl)-7,9-dihydro-8H-purine-8-one] | 93 | 48 |
| CC(c1ccccc1)c1ncc2c(n1)n(C)c(=O)n2C(=O)N1CCCC1 (centres unmarked) [Example 273] | 89 | 47 |
| CCCCc1ncc2c(n1)n(C)c(=O)n2C(=O)N1CCCC1 [Example 274, 2-Butyl-9-methyl-7-(pyrrolidin-1-ylcarbonyl)-7,9-dihydro-8H-purine-8-one] | 98 | 10 |
| CC(C)c1ncc2c(n1)n(C)c(=O)n2C(=O)N1CCCC1 [Example 275] | 73 | 64 |
| CCOC(=O)CCc1ncc2c(n1)n(C)c(=O)n2C(=O)N1CCCC1 [Example 276] | 63 | 75 |
| CCN(C)C(=O)n1c(=O)n(C)c2nc(Cc3cccc(OC)c3)ncc21 [Example 277, N-Ethyl-2-(3-methoxybenzyl)-N,9-dimethyl-8-oxo-8,9-dihydro-7H-purine-7-carboxamide] | 96 | 7 |
| CCN(C)C(=O)n1c(=O)n(C)c2nc(Cc3ccccc3)ncc21 [Example 278, 2-Benzyl-N-ethyl-N,9-dimethyl-8-oxo-8,9-dihydro-7H-purine-7-carboxamide] | 99 | 8 |
| CCN(C)C(=O)n1c(=O)n(C)c2nc(Cc3ccc(F)cc3)ncc21 [Example 279, N-Ethyl-2-(4-fluorobenzyl)-N,9-dimethyl-8-oxo-8,9-dihydro-7H-purine-7-carboxamide] | 98 | 3 |
| CCN(C)C(=O)n1c(=O)n(C)c2nc(Cc3ccc(OC)cc3)ncc21 [Example 280, N-Ethyl-2-(4-methoxybenzyl)-N,9-dimethyl-8-oxo-8,9-dihydro-7H-purine-7-carboxamide] | 105 | 11 |
| CCN(C)C(=O)n1c(=O)n(C)c2nc(Cc3ccc(C)cc3)ncc21 [Example 281, N-Ethyl-N,9-dimethyl-2-(4-methylbenzyl)-8-oxo-8,9-dihydro-7H-purine-7-carboxamide] | 98 | 14 |
| CCN(C)C(=O)n1c(=O)n(C)c2nc(Cc3cccc(C)c3)ncc21 [Example 282, N-Ethyl-N,9-dimethyl-2-(3-methylbenzyl)-8-oxo-8,9-dihydro-7H-purine-7-carboxamide] | 97 | 10 |
| CCN(C)C(=O)n1c(=O)n(C)c2nc(Cc3cccc(F)c3)ncc21 [Example 284, N-Ethyl-2-(3-fluorobenzyl)-N,9-dimethyl-8-oxo-8,9-dihydro-7H-purine-7-carboxamide] | 100 | 3 |
| COc1cccc(Cc2ncc3c(n2)n(C(=O)N2CCCC2)c(=O)n3C)c1 [Example 288, 2-(3-Methoxybenzyl)-7-methyl-9-(pyrrolidin-1-ylcarbonyl)-7,9-dihydro-8H-purine-8-one] | 86 | 47 |
